Assay results as given in patent publication US20080031866A1, “METHOD FOR MODULATING THE PHARMACOKINETICS AND METABOLISM OF A THERAPEUTIC AGENT” (priority 2006, published 2008).

Columns and labels:
[1] = IV pharmacokinetics of Compound 1 and its glucuronides in rats; format: in vivo, rat; settings: for AUC: read-out: AUC average ± standard deviation; for Cmax: read-out: Cmax average ± standard deviation
Protocol: Two separate IV studies were carried out using two separate lots of animals. IV-A was run on the same lot of animals as the oral gavage study and IV-B was run on the same lot of animals as the intraduodenal and intra-colonic studies.
For the IV dosing solutions (IV), Compound 1 was prepared by addition to DI water containing 20% hydroxypropyl β-cyclodextran by weight.
For the IV and oral gavage dosing (sampling at jugular and portal vein), young adult male Sprague Dawley rats weighing 250-400 g were purchased from Hilltop Lab Animals Inc. All rat experiments were conducted under approved animal protocols. The rats for the oral gavage dosing were catheterized at Hilltop Lab Animals Inc, had two chronic catheters for sampling: jugular and portal, were housed in cages of Culex™ Automated Blood Sampler (ABS) and blood samples were collected simultaneously via both cannula and were controlled by the Culex™ ABS control software.
(§1) A quantitative method for determining the amount of (6,7-dimethoxy-2,4-dihydro-indeno[1,2-c]pyrazol-3-yl)-(3-fluoro-phenyl)-amine Compound 1 and its major metabolites, glucuronide A (Cpd 1-GluA) and glucuronide B (Cpd 1-GluB) (see Scheme A) in rat plasma was developed using phenacetin as an internal standard. [drawing 1]
(§2) The two glucuronide conjugates were prepared and purified to permit accurate quantification of the levels of intact parent Compound 1 versus Cpd 1-GluA and Cpd 1-GluB. Each standard curve for Compound 1, Cpd 1-GluA, and Cpd 1-GluB generated from rat plasma included ten concentration levels. […] The quantitative procedure for each sample included: sample preparation, HPLC separation and mass spectrometry detection.
(§3) The rat plasma was prepared using protein precipitation techniques. Reference standards and quality control samples in rat plasma for Compound 1 were transferred to a 96 deep-well plate. The precipitation solution contained 100 ng/ml of internal standard in acetonitrile. 300 μl of precipitation solution were added to 100 μl of each standard, quality control and plasma sample. Samples were vortexed for 10 mins, then centrifuged at 4500 RPM for 10 mins. 10 μl of each sample were injected for LC/MS/MS analysis.
(§4) The HPLC column chosen for the bioanalysis was purchased from Thermo Electron (Hypersil BetaBasic C18, 5 cm×2.1 mm). The eluting solvents were composed of Solvent A: 0.1% formic acid in H2O and Solvent B: 0.1% formic acid in acetonitrile. A step gradient was used and flow rate was 300 μl/min. The total run time was 3.2 mins. Solvent B was increased from 35% at 0 min to 75% at 2.1 mins and decreased back to 35% at 2.2 mins. The retention times for Compound 1, phenacetin, Cpd 1-GluA and Cpd 1-GluB were 1.1 min, 0.9 min, 1.3 min, and 1.6 min, respectively.
API3000 with a Turbo Ionspray interface from Applied Biosystems was used for the detection of Compound 1, the internal standard and major metabolites. Electrospray ionization was performed in the positive ion mode heated nebulizer with a temperature of 300° C. LC/MS/MS chromatograms were acquired in MRM (multiple reaction mode). The MRM transitions for Compound 1, the internal standard, Cpd 1-GluA and Cpd 1-GluB were from 326.3 to 190.6, 181.1 to 110.3, 502.2 to 368.3 and 502.2 to 326.4, respectively.
Pharmacokinetic analysis of the plasma concentration data was performed to determine the maximum plasma concentration (Cmax) for the oral dose, and the concentration at zero time (C0; Compound 1 only) by the extrapolation of drug concentrations back to the time of i.v. dosing, the time to maximum plasma concentration (Tmax) following the oral dose, area under the plasma concentration vs. time curve (AUC), terminal half-life (t1/2), plasma clearance (CL/F; Compound 1 only), and volume of distribution at steady state (Vdss; Compound 1 only) for the i.v. dose, using the WinNonlin (Version 3.1, Pharsight, Palo Alto, Calif.) validated computer program.

[2] = Intraduodenal dosing with and without β-glucuronidase, catheterized rat; format: in vivo; settings: for AUC / Cmax / concentration at 0 h / concentration at 0.25 h / concentration at 0.5 h / concentration at 1 h / concentration at 2 h / concentration at 3 h / concentration at 4 h / concentration at 5 h / concentration at 6 h / AUC average ± standard deviation 0 to 6 hours / Cmax average ± standard deviation: 10 mg/kg, rats N=6; for AUC: read-out: AUC average ± standard deviation 0 to 6 hours; for Cmax: read-out: Cmax average ± standard deviation; for concentration at 0 h / concentration at 0.25 h / concentration at 0.5 h / concentration at 1 h / concentration at 2 h / concentration at 3 h / concentration at 4 h / concentration at 5 h / concentration at 6 h: other: intraduodenal; for Increase in AUC with β-glucuronidase: with vs no enzyme
Protocol: A catheterized rat model was used in which the agent alone or agent and β-glucuronidase enzyme was administered intraduodenally or intracolonically. The intraduodenal and intracolonic dosing was intended to prevent the potential for loss of enzymatic activity when orally dosing the β-glucuronidase (e.g. by degradation in the stomach). […]
For the oral gavage dosing, Compound 1 was prepared in neat PEG-400. For the intraduodenal and intracolonic dosing solutions, Compound 1 was added to neat Tween 80, the mixture was sonicated for thirty minutes at 45° C. until Compound 1 was completely dissolved and then deionized (DI) water was added to form a solution consisting of 20% Tween 80 and 80% DI water by weight.
For the oral enzyme solutions, β-glucuronidase was added to the final formulation at a concentration of 57,600 units/ml.
For the intraduodenal and intracolonic dosing, male Sprague Dawley rats weighing 300-400 g were purchased from Charles River Labs. All rat experiments were conducted under approved animal protocols. The rats were catheterized at Charles River Labs and had one or more of the following chronic catheters for dosing and sampling: jugular/carotid, duodenal, and colonic. Rats were limited to only one GI catheter and one vascular catheter. For IV dosing, rats were purchased with jugular and carotid catheters for dosing in the jugular catheter and blood sampling through the carotid catheter. For intraduodenal/intracolonic dosing, rats had one of the GI catheters for dosing and a carotid catheter for blood sampling.
The surgeries were done two weeks prior to start of testing. Rats were fed 4 hours post dose administration. All rats were dosed without anesthesia and sacrificed at the end of the study.
as §1, §2, §3, §4
API3000 with a Turbo Ionspray interface from Applied Biosystems was used for the detection of Compound 1, the internal standard and major metabolites. Electrospray ionization was performed in the positive ion mode heated nebulizer with a temperature of 300° C. LC/MS/MS chromatograms were acquired in MRM (multiple reaction mode). […]

[3] = Sprague Dawley, rat, plasma, male rats N=4, Compound 1 2 mg/kg IV
[4] = Sprague Dawley, rat, plasma, male rats N=4, Compound 1 2 mg/kg IV, retro orbital sinus
[5] = male, Sprague Dawley, rat, plasma, Compound 1 10 mg/kg intraduodenal with β-glucuronidase
[6] = male, Sprague Dawley, rat, plasma, Compound 1 10 mg/kg intraduodenal without enzyme
[7] = Compound 1 10 mg/kg intraduodenal with β-glucuronidase
[8] = Compound 1 10 mg/kg intraduodenal without enzyme

Structure (SMILES) | AUC [1, 3] [ng·h/mL] | Cmax [1, 3] [ng/mL] | concentration at 0.08 h [1, 4] [ng/mL] | concentration at 0.33 h [1, 4] [ng/mL] | concentration at 1 h [1, 4] [ng/mL] | concentration at 2 h [1, 4] [ng/mL] | concentration at 4 h [1, 4] [ng/mL] | concentration at 8 h [1, 4] [ng/mL] | concentration at 24 h [1, 4] [ng/mL] | AUC [2, 5] [ng·h/mL] | Cmax [2, 5] [ng/mL] | AUC [2, 6] [ng·h/mL] | Cmax [2, 6] [ng/mL] | concentration at 0 h [2, 5] [ng/mL] | concentration at 0.25 h [2, 5] [ng/mL] | concentration at 0.5 h [2, 5] [ng/mL] | concentration at 1 h [2, 5] [ng/mL] | concentration at 2 h [2, 5] [ng/mL] | concentration at 3 h [2, 5] [ng/mL] | concentration at 4 h [2, 5] [ng/mL] | other results
COc1cc2c(cc1OC)-c1nn(C3OC(C(=O)O)C(O)C(O)C3O)c(Nc3cccc(F)c3)c1C2 (stereo in doubt) [Cpd 1-GluB] | 103 ± 47 | 28 ± 3 | 21.2 | 28.4 | 17.8 | 5.5 | 0 | 0 | 0 | 1770 | 755 ± 509 | 128 ± 55.3 | 75.7 ± 27.4 | 0 | 508 ± 342 | 503 ± 363 | 676 ± 586 | 275 ± 260 | 271 ± 181 | 194 ± 165 | concentration at 0 h ([1]; Sprague Dawley, rat, plasma, male rats N=4, Compound 1 2 mg/kg IV, retro orbital sinus, 0 hrs): 0 ng/mL; Tmax ([1]; Sprague Dawley, rat, plasma, male rats, Compound 1 2 mg/kg IV): 18 min; concentration at 5 h [2, 5]: 146 ± 84.4 ng/mL; concentration at 6 h [2, 5]: 119 ± 108 ng/mL; concentration at 0 h [2, 6]: 0 ng/mL; concentration at 0.25 h [2, 6]: 70.2 ± 29.3 ng/mL; concentration at 0.5 h [2, 6]: 72.4 ± 28.2 ng/mL; concentration at 1 h [2, 6]: 51.2 ± 24.9 ng/mL; concentration at 2 h [2, 6]: 13.5 ± 5.5 ng/mL; concentration at 3 h [2, 6]: 7.1 ± 5 ng/mL; concentration at 4 h [2, 6]: 9.6 ± 6.7 ng/mL; concentration at 5 h [2, 6]: 9.2 ± 4.1 ng/mL; concentration at 6 h [2, 6]: 10.4 ± 4 ng/mL
COc1cc2c(cc1OC)-c1n[nH]c(Nc3cccc(F)c3)c1C2 [Compound 1, (6,7-dimethoxy-2,4-dihydro-indeno[1,2-c]pyrazol-3-yl)-(3-fluoro-phenyl)-amine] | 345 ± 42 | 783 ± 233 | 610 | 286 | 71.3 | 16.3 | 1.2 | 0 | 0 | 177 ± 55 | 129 ± 41 | 60 ± 18 | 75 ± 30 | 0 | 129 ± 41.4 | 107 ± 26.6 | 75.6 ± 35 | 21.2 ± 12.5 | 12.9 ± 4.3 | 9.5 ± 3.1 | Plasma level of Compound 1 relative to level of the metabolites ([1]; IV administration): 2%; C0 ([1]; Sprague Dawley, rat, plasma, male rats N=4, Compound 1 2 mg/kg IV, read-out: C0 (concentration at zero time, by extrapolation)): 783 ng/mL; Increase in AUC with β-glucuronidase ([2]; intraduodenal 10 mg/kg): 2.9 fold; Increase in AUC with β-glucuronidase ([2]; intraduodenal): 294%; concentration at 5 h [2, 5]: 3.7 ± 6.3 ng/mL; concentration at 6 h [2, 5]: 1.7 ± 2.7 ng/mL; concentration at 0 h [2, 6]: 0 ng/mL; concentration at 0.25 h [2, 6]: 75.2 ± 30.3 ng/mL; concentration at 0.5 h [2, 6]: 55.1 ± 15.5 ng/mL; concentration at 1 h [2, 6]: 18.7 ± 5.9 ng/mL; concentration at 2 h [2, 6]: 3.2 ± 0.6 ng/mL; concentration at 3 h [2, 6]: 1.5 ± 0.9 ng/mL; concentration at 4 h [2, 6]: 1.6 ± 0.7 ng/mL; concentration at 5 h [2, 6]: 0 ng/mL; concentration at 6 h [2, 6]: 0 ng/mL; Tmax ([2]; male, Sprague Dawley, rat, plasma, intraduodenal 10 mg/kg, unchanged with or without enzyme): 30 min; AUC average ± standard deviation 0 to 6 hours [2, 7]: 177.4 ± 55.3 ng·h/mL; Cmax average ± standard deviation [2, 7]: 129.4 ± 41.1 ng/mL; AUC average ± standard deviation 0 to 6 hours [2, 8]: 60.3 ± 17.8 ng·h/mL; Cmax average ± standard deviation [2, 8]: 76.0 ± 29.0 ng/mL
